Data on 2 compounds can be found in ChEMBL document CHEMBL6177973, “A Novel Compound 3a-M1, from Metabolites of Sinomenine Derivative 3a, Exerts Potent Anti-Aplastic Anemia Activity via IP3R/ORAI-Mediated CTL Ferroptosis” (J Med Chem, 2025).

As usually defined, the MTD is the largest dose that counted as tolerated. Broadly, the IC50 is the midpoint of a concentration-inhibition curve.

Molecules are shown by their SMILES. The source made the active and inactive calls. The rule behind the calls is not given here.

The nature of series [1]: Acute toxicity in 12 hr-fasted KM mouse assessed as maximum tolerable dose administered orally as single dose measured for 14 days. The following applies: in vivo, route po, time 14 day.
Series [2] concerns Mus musculus. Briefly: Anti-aplastic anemia activity in C57BL/6J mouse model of immune-mediated bone marrow failure assessed as increase in animal survival at 5 to 15 mg/kg, IG qd treated for 21 days. The series is classed as functional, organism-based. The following applies: dose 5-15 mg/kg, time 21.0 day.
Series [3] concerns Mus musculus. Briefly: Anti-aplastic anemia activity in C57BL/6J mouse model of immune-mediated bone marrow failure assessed as CD8+ T cells at 10 mg/kg, IG qd treated for 12 days by flow cytometry (reference value: 72.15 %). As to conditions: time 12 day. The class given is functional. On the technique in general: In flow cytometry, cells or beads pass a laser one at a time.

The test system of series [4] is Mus musculus. Put plainly: Anti-aplastic anemia activity in C57BL/6J mouse model of immune-mediated bone marrow failure assessed as increase in memory CD8+ T cells at 5 to 15 mg/kg, IG qd treated for 12 days by flow cytometry. The class given is functional, organism-based. The following applies: dose 5-15 mg/kg, time 12.0 day.
The test system of series [5] is CTLL-2. Briefly: Cytotoxicity against mouse CTLL-2 cells assessed as inhibition of cell viability incubated for 72 hrs by CCK8 assay. The class given is functional, cell-based. The following applies: CTLL-2, 72 h, read-out: IC50. Background: Formazan colour is commonly taken as a measure of viable cells.
Another series has as its system HL-60. Briefly: Cytotoxicity against human HL-60 cells assessed as inhibition of cell viability incubated for 72 hrs by CCK8 assay. The class given is functional, cell-based. The following applies: HL-60, 72 h.
Series [6] relates to CTLL-2. Put plainly: Induction of ferroptosis in IL-2-stimulated mouse CTLL-2 cells assessed as increase in ROS level at 30 uM incubated for 6 hrs followed by Fer-1 addition measured after 10 hrs by DCFH-DA staining based flow cytometry. The series is classed as functional, cell-based. As to conditions: time 16.0 hrs.
In series [7] the test system is CTLL-2. Put plainly: Induction of ferroptosis in IL-2-stimulated mouse CTLL-2 cells assessed as increase in mitochondrial superoxide level at 30 uM incubated for 6 hrs followed by Fer-1 addition measured after 10 hrs by MitoSOX Red staining based fluorescent microscopy. The following applies: time 16.0 hrs. The series is classed as functional, cell-based.
The test system of series [8] is CTLL-2. Put plainly: Induction of ferroptosis in IL-2-stimulated mouse CTLL-2 cells assessed as increase in pMEK level at 30 uM incubated for 6 hrs followed by Fer-1 addition measured after 10 hrs by Western blot analysis. The class given is functional, cell-based. The following applies: time 16.0 hrs.
In series [9] the test system is CTLL-2. Briefly: Induction of ferroptosis in IL-2-stimulated mouse CTLL-2 cells assessed as increase in p-p38 level at 30 uM incubated for 6 hrs followed by Fer-1 addition measured after 10 hrs by Western blot analysis. As to conditions: time 16.0 hrs. The series is classed as functional, cell-based. Background: Immunoblotting shows a protein as a band on a membrane.

Series [10] relates to CTLL-2. Briefly: Induction of ferroptosis in mouse CTLL-2 cells assessed as increase in intracellular Ca2+ concentration in presence of 2-APB/CM4620 by Fluo-4 AM dye based analysis. The class given is functional, cell-based.
The test system of the next series is NRK-52E. Put plainly: Induction of ferroptosis in rat NRK-52E cells assessed as increase in intracellular Ca2+ concentration at 10 uM by Fluo-4 AM dye based analysis. The series is classed as functional, cell-based.
Series [11] can be described thus: Stability in rat plasma at 37 degreeC. The class given is ADME, cell-free.
Series [12] in a line: Drug metabolism in rat plasma assessed as double hydrolyzation/double hydroxylation-mediated metabolite formation at 50 mg/kg, po measured for 24 hrs by HRMS analysis. The following applies: in vivo. The class given is ADME, organism-based.
A short description of series [13]: Drug metabolism in rat plasma assessed as hydrolyzation/demethylation/hydroxylation-mediated metabolite formation at 50 mg/kg, po measured for 24 hrs by HRMS analysis. The following applies: in vivo. The series is classed as ADME, organism-based.
Series [14] is described as follows: Drug metabolism in rat plasma assessed as double hydrolyzation/double demethylation-mediated metabolite formation at 50 mg/kg, po measured for 24 hrs by HRMS analysis. The following applies: in vivo. The series is classed as ADME, organism-based.
A short description of series [15]: Drug metabolism in mouse kidney assessed as (4bR,9S)-1-(hydroxymethyl)-3,7-dimethoxy-11-methyl-6-oxo-6,8a,9,10-tetrahydro-5H-9,4b-(epiminoethano)phenanthren-4-yl cinnamate metabolite formation at 50 mg/kg, po measured for 0.083 to 8 hrs by HPLC analysis. The following applies: in vivo, time 0.083-8 hrs. The series is classed as ADME, organism-based.
Series [16] is described as follows: Drug metabolism in Sprague-Dawley rat plasma assessed as cinnamic acid metabolite formation at 5 mg/kg, iv measured for 24 hrs by HPLC analysis. The class given is ADME, organism-based. The following applies: in vivo.

Regarding `COC1=C[C@@H]2[C@@H]3Cc4c(CO)cc(OC)c(OC(=O)/C=C/c5ccccc5)c4[C@]2(CCN3C)CC1=O`, in series [1], the maximal tolerated dose (MTD) at 336 h is over 10000 mg/kg. Moreover, the Activity result in the series with Mus musculus [2] is “Active; Improvement Observed During Early Stages Of Bone Marrow Failure”; in the series on Mus musculus [3], 38.55%; in the series with NRK-52E it was “Not active; Elevation Was Smaller Than In Mouse Ctll-2 Cells”. In addition, the outcome with Mus musculus [4] was Active. Further, the IC50 in the series on CTLL-2 [5] was found to be 37.9 µM; in the series on HL-60, 133 µM. The outcome with CTLL-2 [6], with CTLL-2 [7], in the series with CTLL-2 [8], in the series on CTLL-2 [9] and in the series with CTLL-2 [10] was inactive.

Regarding `COC1=C[C@@H]2[C@@H]3Cc4c(COC(=O)/C=C/c5ccccc5)cc(OC)c(OC(=O)/C=C/c5ccccc5)c4[C@]2(CCN3C)CC1=O`, the Stability entry in series [11] was “Unstable”. Also, the Drug metabolism result in [12], in series [13], in [14], in [15] and in series [16] was “metabolite_detected” each time.
